Peptide text beside a SMILES is read from it.
Experiments:
CRF1R = biological target: T1, CRF1R (Homo sapiens, UniProt P34998); assay: CRF1R agonist activation (EC50 / Emax), called comparative CRF binding; format: cell-based; details: for EC50: read-out: CRF1R EC50; for Emax: read-out: CRF1R Emax
T1 sequence (P34998 24-415): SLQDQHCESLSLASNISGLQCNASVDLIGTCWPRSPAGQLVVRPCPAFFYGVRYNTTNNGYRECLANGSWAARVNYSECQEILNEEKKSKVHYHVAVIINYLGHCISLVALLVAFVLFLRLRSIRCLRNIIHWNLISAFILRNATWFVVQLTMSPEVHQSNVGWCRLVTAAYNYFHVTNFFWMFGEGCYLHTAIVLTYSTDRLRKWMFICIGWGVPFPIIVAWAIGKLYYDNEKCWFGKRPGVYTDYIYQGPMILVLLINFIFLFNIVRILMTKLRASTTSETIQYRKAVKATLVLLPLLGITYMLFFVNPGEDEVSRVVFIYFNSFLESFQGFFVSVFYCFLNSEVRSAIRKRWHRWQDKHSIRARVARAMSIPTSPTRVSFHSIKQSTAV
In short: (§1)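 Cells expressing full-length human CRF1R or CRF2R were exposed to peptide or vehicle control, and receptor activation was gauged as cAMP induction. cAMP was measured in cell lysates or via a cAMP-responsive element driving a reporter gene such as luciferase, CAT, GFP or alkaline phosphatase.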

CRF2R = biological target: T2, CRF2R (Homo sapiens, UniProt Q13324); assay: CRF2R agonist activation (EC50 / Emax), called comparative CRF binding; format: cell-based; details: for EC50: read-out: CRF2R EC50; for Emax: read-out: CRF2R Emax
T2 sequence (Q13324 1-411): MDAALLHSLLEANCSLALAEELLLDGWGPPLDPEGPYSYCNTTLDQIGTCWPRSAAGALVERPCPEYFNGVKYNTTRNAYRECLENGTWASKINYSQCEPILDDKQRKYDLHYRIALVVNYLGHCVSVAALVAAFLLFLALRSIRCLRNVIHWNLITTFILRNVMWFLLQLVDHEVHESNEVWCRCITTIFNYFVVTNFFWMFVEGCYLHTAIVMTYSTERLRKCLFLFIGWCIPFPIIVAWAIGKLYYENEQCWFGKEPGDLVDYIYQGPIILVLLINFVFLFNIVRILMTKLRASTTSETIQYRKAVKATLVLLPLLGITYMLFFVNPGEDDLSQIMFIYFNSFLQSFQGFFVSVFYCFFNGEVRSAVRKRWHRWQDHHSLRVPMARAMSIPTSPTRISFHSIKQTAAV
In short: as §1

| Structure (SMILES) | EC50 (CRF1R) [nM] | Emax (CRF1R) [%] | EC50 (CRF2R) [nM] | Emax (CRF2R) [%] |
| --- | --- | --- | --- | --- |
| CC[C@H](C)[C@H](NC(=O)[C@H](C)NC(=O)[C@H](CC(N)=O)NC(=O)[C@H](CCC(N)=O)NC(=O)[C@H](CCC(=O)O)NC(=O)[C@H](C)NC(=O)[C@H](CCCNC(=N)N)NC(=O)[C@H](CCC(=O)O)NC(=O)[C@H](CCCNC(=N)N)NC(=O)[C@H](CCC(N)=O)NC(=O)[C@H](CO)NC(=O)[C@H](CCC(N)=O)NC(=O)[C@@H](NC(=O)[C@H](CCCNC(=N)N)NC(=O)[C@H](C)NC(=O)[C@H](CC(C)C)NC(=O)[C@H](CCC(=O)O)NC(=O)[C@H](CC(C)C)NC(=O)[C@H](CC(C)C)NC(=O)[C@@H](NC(=O)[C@H](CCCNC(=N)N)NC(=O)[C@H](CC(C)C)NC(=O)[C@H](CC(C)C)NC(=O)[C@H](CCC(N)=O)NC(=O)[C@H](Cc1ccccc1)NC(=O)[C@@H]1CCCN1C(=O)[C@H](CC(C)C)NC(=O)[C@H](CC(=O)O)NC(=O)[C@@H](NC(=O)[C@H](CO)NC(=O)[C@H](CC(C)C)NC(=O)[C@H](CO)NC(=O)[C@@H]1CCCN1C(=O)[C@H](CC(N)=O)NC(=O)[C@@H](N)CC(=O)O)[C@@H](C)CC)[C@@H](C)O)[C@@H](C)O)C(=O)N[C@H](C(=O)N[C@@H](Cc1ccccc1)C(=O)N[C@@H](C)C(=O)N[C@@H](CO)C(=O)N[C@H](C(N)=O)C(C)C)[C@@H](C)CC [compound 182] (H-DNPSLSIDLPFQLLRTLLELARTQSQRERAEQNAIIFASV-NH2; N-terminus assumed) | 409 | 89.7 | 7.21 | 91.4 |
| CC[C@H](C)[C@H](NC(=O)[C@H](C)NC(=O)[C@H](CC(N)=O)NC(=O)[C@H](CCC(N)=O)NC(=O)[C@H](CCC(=O)O)NC(=O)[C@H](C)NC(=O)[C@H](CCCNC(=N)N)NC(=O)[C@H](CCC(=O)O)NC(=O)[C@H](CCCNC(=N)N)NC(=O)[C@H](CCC(N)=O)NC(=O)[C@H](CO)NC(=O)[C@H](CCC(N)=O)NC(=O)[C@@H](NC(=O)[C@H](CCCNC(=N)N)NC(=O)[C@H](C)NC(=O)[C@H](CC(C)C)NC(=O)[C@H](CCC(=O)O)NC(=O)[C@H](CC(C)C)NC(=O)[C@H](CC(C)C)NC(=O)[C@@H](NC(=O)[C@H](CCCNC(=N)N)NC(=O)[C@H](CC(C)C)NC(=O)[C@H](CC(C)C)NC(=O)[C@H](Cc1ccc(O)cc1)NC(=O)[C@H](Cc1ccccc1)NC(=O)[C@@H]1CCCN1C(=O)[C@H](CC(C)C)NC(=O)[C@H](CC(=O)O)NC(=O)[C@@H](NC(=O)[C@H](CO)NC(=O)[C@H](CC(C)C)NC(=O)[C@H](CO)NC(=O)[C@@H]1CCCN1C(=O)[C@H](CC(N)=O)NC(=O)[C@@H](N)CC(=O)O)[C@@H](C)CC)[C@@H](C)O)[C@@H](C)O)C(=O)N[C@H](C(=O)N[C@@H](Cc1ccccc1)C(=O)N[C@@H](C)C(=O)N[C@@H](CO)C(=O)N[C@H](C(N)=O)C(C)C)[C@@H](C)CC [compound 183] (H-DNPSLSIDLPFYLLRTLLELARTQSQRERAEQNAIIFASV-NH2; N-terminus assumed) |  | 57.5 |  | 100 |
| CC[C@H](C)[C@H](NC(=O)[C@H](C)NC(=O)[C@H](CC(N)=O)NC(=O)[C@H](CCC(N)=O)NC(=O)[C@H](CCC(=O)O)NC(=O)[C@H](C)NC(=O)[C@H](CCCNC(=N)N)NC(=O)[C@H](CCC(=O)O)NC(=O)[C@H](CCCNC(=N)N)NC(=O)[C@H](CCC(N)=O)NC(=O)[C@H](CO)NC(=O)[C@H](CCC(N)=O)NC(=O)[C@@H](NC(=O)[C@H](CCCNC(=N)N)NC(=O)[C@H](C)NC(=O)[C@H](CC(C)C)NC(=O)[C@H](CCC(=O)O)NC(=O)[C@H](CC(C)C)NC(=O)[C@H](CC(C)C)NC(=O)[C@@H](NC(=O)[C@H](CCCNC(=N)N)NC(=O)[C@H](CC(C)C)NC(=O)[C@H](CC(C)C)NC(=O)[C@H](Cc1ccccc1)NC(=O)[C@H](Cc1ccccc1)NC(=O)[C@@H]1CCCN1C(=O)[C@H](CC(C)C)NC(=O)[C@H](CC(=O)O)NC(=O)[C@@H](NC(=O)[C@H](CO)NC(=O)[C@H](CC(C)C)NC(=O)[C@H](CO)NC(=O)[C@@H]1CCCN1C(=O)[C@H](CC(N)=O)NC(=O)[C@@H](N)CC(=O)O)[C@@H](C)CC)[C@@H](C)O)[C@@H](C)O)C(=O)N[C@H](C(=O)N[C@@H](Cc1ccccc1)C(=O)N[C@@H](C)C(=O)N[C@@H](CO)C(=O)N[C@H](C(N)=O)C(C)C)[C@@H](C)CC [compound 184] (H-DNPSLSIDLPFFLLRTLLELARTQSQRERAEQNAIIFASV-NH2; N-terminus assumed) |  | 77.3 |  | 96.5 |
| CC[C@H](C)[C@H](NC(=O)[C@H](C)NC(=O)[C@H](CC(N)=O)NC(=O)[C@H](CCC(N)=O)NC(=O)[C@H](CCC(=O)O)NC(=O)[C@H](C)NC(=O)[C@H](CCCNC(=N)N)NC(=O)[C@H](CCC(=O)O)NC(=O)[C@H](CCCNC(=N)N)NC(=O)[C@H](CCC(N)=O)NC(=O)[C@H](CO)NC(=O)[C@H](CCC(N)=O)NC(=O)[C@@H](NC(=O)[C@H](CCCNC(=N)N)NC(=O)[C@H](C)NC(=O)[C@H](CC(C)C)NC(=O)[C@H](CCC(=O)O)NC(=O)[C@H](CC(C)C)NC(=O)[C@H](CC(C)C)NC(=O)[C@@H](NC(=O)[C@H](CCCNC(=N)N)NC(=O)[C@H](CC(C)C)NC(=O)[C@H](CC(C)C)NC(=O)[C@H](Cc1c[nH]cn1)NC(=O)[C@H](Cc1ccccc1)NC(=O)[C@@H]1CCCN1C(=O)[C@H](CC(C)C)NC(=O)[C@H](CC(=O)O)NC(=O)[C@@H](NC(=O)[C@H](CO)NC(=O)[C@H](CC(C)C)NC(=O)[C@H](CO)NC(=O)[C@@H]1CCCN1C(=O)[C@H](CC(N)=O)NC(=O)[C@@H](N)CC(=O)O)[C@@H](C)CC)[C@@H](C)O)[C@@H](C)O)C(=O)N[C@H](C(=O)N[C@@H](Cc1ccccc1)C(=O)N[C@@H](C)C(=O)N[C@@H](CO)C(=O)N[C@H](C(N)=O)C(C)C)[C@@H](C)CC [compound 185] (H-DNPSLSIDLPFHLLRTLLELARTQSQRERAEQNAIIFASV-NH2; N-terminus assumed) | 358 | 95.8 | 8.98 | 100 |
| CC[C@H](C)[C@H](N)C(=O)N[C@H](C(=O)N[C@@H](CC(C)C)C(=O)N[C@@H](CO)C(=O)N[C@@H](CC(C)C)C(=O)N[C@@H](CC(=O)O)C(=O)N[C@H](C(=O)N[C@H](C(=O)N[C@H](C(=O)NCC(=O)N[C@@H](CC(C)C)C(=O)N[C@@H](CC(C)C)C(=O)N[C@@H](CCC(N)=O)C(=O)N[C@H](C(=O)N[C@@H](CC(C)C)C(=O)N[C@@H](CC(C)C)C(=O)N[C@@H](CCC(=O)O)C(=O)N[C@@H](CCC(N)=O)C(=O)N[C@@H](C)C(=O)N[C@@H](CCCNC(=N)N)C(=O)N[C@@H](C)C(=O)N[C@@H](CCCNC(=N)N)C(=O)N[C@@H](C)C(=O)N[C@@H](C)C(=O)N[C@@H](CCCNC(=N)N)C(=O)N[C@@H](CCC(=O)O)C(=O)N[C@@H](CCC(N)=O)C(=O)N[C@@H](C)C(=O)N[C@H](C(=O)N[C@H](C(=O)N[C@@H](CC(N)=O)C(=O)N[C@@H](C)C(=O)N[C@@H](CCCNC(=N)N)C(=O)N[C@H](C(=O)N[C@@H](CC(C)C)C(=O)N[C@@H](C)C(=O)N[C@@H](CCCNC(=N)N)C(=O)N[C@H](C(N)=O)C(C)C)[C@@H](C)CC)[C@@H](C)O)[C@@H](C)O)[C@@H](C)CC)[C@@H](C)CC)C(C)C)C(C)C)C(C)C [compound 214] (H-IVLSLDVVIGLLQILLEQARARAAREQATTNARILARV-NH2; N-terminus assumed) |  | 4 |  | 60 |
| CC[C@H](C)[C@H](NC(=O)[C@H](C)NC(=O)[C@H](CC(N)=O)NC(=O)[C@H](CCC(N)=O)NC(=O)[C@H](CCC(=O)O)NC(=O)[C@H](C)NC(=O)[C@H](CCCNC(=N)N)NC(=O)[C@H](CCC(=O)O)NC(=O)[C@H](CCCNC(=N)N)NC(=O)[C@H](CCC(N)=O)NC(=O)[C@H](CO)NC(=O)[C@H](CCC(N)=O)NC(=O)[C@@H](NC(=O)[C@H](CCCNC(=N)N)NC(=O)[C@H](C)NC(=O)[C@H](CC(C)C)NC(=O)[C@H](CCC(=O)O)NC(=O)[C@H](CC(C)C)NC(=O)[C@H](CC(C)C)NC(=O)[C@@H](NC(=O)[C@H](CCCNC(=N)N)NC(=O)[C@H](CC(C)C)NC(=O)[C@H](CC(C)C)NC(=O)[C@H](Cc1ccc(O)cc1)NC(=O)[C@H](Cc1ccc(O)cc1)NC(=O)[C@@H]1CCCN1C(=O)[C@H](CC(C)C)NC(=O)[C@H](CC(=O)O)NC(=O)[C@@H](NC(=O)[C@H](CO)NC(=O)[C@H](CC(C)C)NC(=O)[C@H](CO)NC(=O)[C@@H]1CCCN1C(=O)[C@H](CC(N)=O)NC(=O)[C@@H](N)CC(=O)O)[C@@H](C)CC)[C@@H](C)O)[C@@H](C)O)C(=O)N[C@H](C(=O)N[C@@H](Cc1ccccc1)C(=O)N[C@@H](C)C(=O)N[C@@H](CO)C(=O)N[C@H](C(N)=O)C(C)C)[C@@H](C)CC [compound 263] (H-DNPSLSIDLPYYLLRTLLELARTQSQRERAEQNAIIFASV-NH2; N-terminus assumed) |  | 72 |  | 93 |
